In one assay the test system is NCI-H460. Put plainly: Cytotoxicity against human NCI-H460 cells assessed as growth inhibition by MTT assay. The format is functional, cell-based. (In general: Formazan colour is commonly taken as a measure of viable cells.)
In the next assay the test system is COLO 205. Put plainly: Cytotoxicity against human COLO205 cells assessed as growth inhibition by MTT assay. The assay is classed as functional, cell-based.
The target of assay [1] is T1, Tubulin (Homo sapiens) (UniProt P68371+Q9H4B7+P0DPH7+P68366+Q13509+Q71U36+P04350+Q3ZCM7+P07437+P68363+Q9BQE3+Q6PEY2+Q13885+Q9BVA1+Q9BUF5). Put plainly: Inhibition of tubulin in human NCI-H460 cells assessed as depolymerization of microtubule cytoskeleton after 8 hrs by immunofluorescence technique. The assay is classed as cell-based.
For assay [2], the target named is T1, Tubulin (Homo sapiens). Briefly: Inhibition of tubulin in human NCI-H460 cells assessed as reduction in spindles formation at 100 nM after 8 hrs by immunofluorescence technique. The assay is classed as cell-based.
For another assay, the system named is HeLa. Briefly: Cytotoxicity against human HeLa cells assessed as growth inhibition after 72 hrs by CCK-8 assay. The format is functional, cell-based.
A further assay concerns A-431. Put plainly: Cytotoxicity against human A431 cells assessed as growth inhibition after 72 hrs by CCK-8 assay. The assay is classed as functional, cell-based. As to conditions: A-431, 72 h.
Assay [3] can be described thus: Cytotoxicity against human MDA-MB-435S cells assessed as growth inhibition after 72 hrs by CCK-8 assay. The format is functional, cell-based.
The subject of another assay is K562. Put plainly: Cytotoxicity against human K562 cells assessed as growth inhibition after 72 hrs by CCK-8 assay. The assay is classed as functional, cell-based. As to conditions: K562, 72 h.
A further assay has as its system HepG2. Put plainly: Cytotoxicity against human HepG2 cells assessed as growth inhibition after 72 hrs by CCK-8 assay. The assay is classed as functional, cell-based. As to conditions: HepG2, 72 h.

A word on the IC50: it is the concentration that gives 50% inhibition.

Active and inactive are the calls of the source. The rule behind the calls is not given here.

Turning to `O=C(Cc1ccccc1)Nc1nc2cc(Oc3ccccc3)ccc2[nH]1`, the IC50 in the assay on NCI-H460 was over 10000 nM; in the assay on COLO 205 it was 11400 nM.

For `CNC(=O)Nc1nc2cc(Oc3cccc(C#N)c3)ccc2[nH]1`, the Activity result on Tubulin (Homo sapiens) [1] was “Dose-dependent effect”. Further, the result at Tubulin (Homo sapiens) [2] was Active.

Turning to `COc1cc2c(c(OC)c1OC)-c1ccc(OC)c(=O)cc1[C@@H](NC(C)=O)CC2` [COLCHICINE], the half-inhibitory concentration (IC50) in the assay with HeLa was determined as 704 nM; in the assay with NCI-H460 it was 21 nM; in the assay on COLO 205, 3 nM; with A-431 it was 8 nM; in assay [3], 7 nM; with K562, 1 nM. The half-maximal inhibitory concentration (IC50) with HepG2 worked out at 1710 nM.

For the molecule `CC(=O)O[C@H]1C(=O)[C@@]2(C)[C@H]([C@H](OC(=O)c3ccccc3)[C@]3(O)C[C@H](OC(=O)[C@H](O)[C@@H](NC(=O)c4ccccc4)c4ccccc4)C(C)=C1C3(C)C)[C@]1(OC(C)=O)CO[C@@H]1C[C@@H]2O` [PACLITAXEL], the half-maximal inhibitory concentration (IC50) amounted to 410 nM in the assay on HeLa; 10 nM in the assay with NCI-H460; 3 nM with COLO 205; 7 nM in the assay with A-431; 9 nM in [3]; 4 nM with K562. Further, in the assay with HepG2, the half-maximal inhibitory concentration (IC50) amounted to 990 nM.

The record behind these values is ChEMBL document CHEMBL3352382, “New benzimidazole-2-urea derivates as tubulin inhibitors” (Bioorg Med Chem Lett, 2014).
